From US20240335431A1, “1-H-PYRROLO[2,3-c]PYRIDINE COMPOUNDS” (Acerta Pharma B.V., priority 2023, published 2024)

Tests used:
Menin protein = Menin protein (Homo sapiens, UniProt O00255, DEL460-519); test: Menin/MLL fluorescence polarization (FP) assay; type: binding; settings: Menin 2 nM, cRho110-Ahx-MBM1/MBM2 peptide 1 nM
Protocol: Compounds were tested in a biochemical binding assay using Menin protein at 2 nM (N6his-tev-Menin_4i80, PB-20-1459) and the substrate cRho110-Ahx-MBM1/MBM2 peptide (UbiQ, UbiQ-Q20201030; cRh110-Ahx-[…]-QRVPALLLPPG-NH2) at 1 nM.
384 Low volume black plates (Corning #4514) were used. 5 μL/well compound or 3% DMSO was added at 10-fold serial dilutions in DMSO from 10 μM. 5 μL/well cRho110-Ahx-MBM1/MBM2 peptide or binding buffer (50 mM Tris pH 7.5, 50 mM NaCl, 1 mM TCEP, 0.01% BGG, 0.01% Brij-35) was added to all wells. 5 μL/well Menin protein or binding buffer (50 mM Tris pH 7.5, 50 mM NaCl, 1 mM TCEP, 0.01% BGG, 0.01% Brij-35) was added to all wells. Plates were read on an EnVision plate reader (Perkin Elmer) with excitation at 480 nm and emission at 535 nm P+S, and measured every 5 minutes for 180 minutes.
Data were analyzed in Genedata Screener®. IC50 values were determined by plotting % inhibition versus log compound concentration and using a one site dose response model. Raw data signals were normalized using 1% DMSO no Menin as 100% inhibitor control and 1% DMSO with Menin and no inhibitor as 0% inhibitor control.

hERG = hERG (Homo sapiens (Human), UniProt Q12809); test: hERG assay 2, QPatch II 48X, room temperature; type: cell-based; settings: hERG DUO cell line, top 200 μM
Protocol: Experiments were performed on the QPatch II 48X (Sophion Biosciences) high throughput patch clamp platform at room temperature and used single hole Qplates. hERG DUO cell line (BSys) was used. The internal patch clamp solution was KF 60 mM, KCl 70 mM, HEPES 10 mM, EGTA 10 mM, and 5 mM Mg ATP (pH7.2). After sealing and whole cell access was gained the external solution (NaCl 140 mM, KCl 4 mM, HEPES 10 mM, CaCl2 2 mM, MgCl2 1 mM, glucose 5 mM (pH 7.4) was applied twice to establish stable baseline currents. An industry standard +40/−40 mV voltage protocol was applied every 15 seconds. All compounds were tested in a 6-point cumulative assay (final DMSO concentration 0.4-2% depending on stock concentration of compounds). Compounds were dispensed from initial 10 mM or 50 mM DMSO stocks after which DMSO dilutions were undertaken with a top concentration of 200 μM tested. Solvent controls were run in all experiments in line with the DMSO % required. Only wells that passed acceptance criteria for this platform were used in this analysis (500 MegaOhm seal resistance and current size >0.2 nA). Analysis was completed in Prism Graphpad to complete a composite IC50, by plotting % inhibition versus log compound concentration and using a log(inhibitor) vs. response—Variable slope.

muscarinic M2 receptor = muscarinic M2 receptor (Homo sapiens (Human), UniProt P08172); test: Muscarinic M2 receptor functional assay, antagonist effect (assay 2); type: cell-based; settings: cAMP, 1 μM acetylcholine
Protocol: Thereafter, the reference agonist acetylcholine and the adenylyl cyclase activator NKH 477 were added at respective final concentrations of 1 μM and 5 μM. For basal control measurements, acetylcholine was omitted from the wells containing 10 μM methoctramine. Following 10 minutes incubation at 37° C., the cells were lysed, and the fluorescence acceptor (D2-labeled cAMP) and fluorescence donor (anti-cAMP antibody labelled with europium cryptate) were added. After 60 minutes at room temperature, the fluorescence transfer was measured at λex=337 nm and λem=620 and 665 nm using a microplate reader (Rubystar, BMG). The cAMP concentration was determined by dividing the signal measured at 665 nm by that measured at 620 nm (ratio). The results were expressed as a percent inhibition of the control response to 1 μM acetylcholine. For test compounds and for standard reference antagonist methoctramine, which is tested in each experiment, assays were run in eight-point concentration response mode and IC50 values determined following non-linear regression curve analysis. Curve analysis was completed using software developed at Cerep (Hill software) and validated by comparison with data generated by the commercial software SigmaPlot®4.0 for Windows® (© 1997 by SPSS Inc.).

Menin protein, sequence (O00255 with tags, fused parts or gaps DEL460-519): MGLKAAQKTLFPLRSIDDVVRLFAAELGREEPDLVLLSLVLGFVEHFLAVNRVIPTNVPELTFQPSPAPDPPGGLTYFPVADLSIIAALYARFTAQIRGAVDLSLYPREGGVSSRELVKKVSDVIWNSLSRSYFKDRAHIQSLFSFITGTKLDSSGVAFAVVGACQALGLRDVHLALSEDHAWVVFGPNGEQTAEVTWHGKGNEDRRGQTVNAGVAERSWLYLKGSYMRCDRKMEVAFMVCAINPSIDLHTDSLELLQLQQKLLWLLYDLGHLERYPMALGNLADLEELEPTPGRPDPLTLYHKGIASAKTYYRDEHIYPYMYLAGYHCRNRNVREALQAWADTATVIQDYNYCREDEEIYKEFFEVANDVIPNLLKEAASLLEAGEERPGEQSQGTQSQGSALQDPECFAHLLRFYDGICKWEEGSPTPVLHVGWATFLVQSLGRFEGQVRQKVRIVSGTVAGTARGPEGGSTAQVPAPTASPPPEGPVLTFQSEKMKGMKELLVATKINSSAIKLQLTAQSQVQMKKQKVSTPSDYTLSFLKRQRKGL
hERG, sequence (Q12809 whole entry): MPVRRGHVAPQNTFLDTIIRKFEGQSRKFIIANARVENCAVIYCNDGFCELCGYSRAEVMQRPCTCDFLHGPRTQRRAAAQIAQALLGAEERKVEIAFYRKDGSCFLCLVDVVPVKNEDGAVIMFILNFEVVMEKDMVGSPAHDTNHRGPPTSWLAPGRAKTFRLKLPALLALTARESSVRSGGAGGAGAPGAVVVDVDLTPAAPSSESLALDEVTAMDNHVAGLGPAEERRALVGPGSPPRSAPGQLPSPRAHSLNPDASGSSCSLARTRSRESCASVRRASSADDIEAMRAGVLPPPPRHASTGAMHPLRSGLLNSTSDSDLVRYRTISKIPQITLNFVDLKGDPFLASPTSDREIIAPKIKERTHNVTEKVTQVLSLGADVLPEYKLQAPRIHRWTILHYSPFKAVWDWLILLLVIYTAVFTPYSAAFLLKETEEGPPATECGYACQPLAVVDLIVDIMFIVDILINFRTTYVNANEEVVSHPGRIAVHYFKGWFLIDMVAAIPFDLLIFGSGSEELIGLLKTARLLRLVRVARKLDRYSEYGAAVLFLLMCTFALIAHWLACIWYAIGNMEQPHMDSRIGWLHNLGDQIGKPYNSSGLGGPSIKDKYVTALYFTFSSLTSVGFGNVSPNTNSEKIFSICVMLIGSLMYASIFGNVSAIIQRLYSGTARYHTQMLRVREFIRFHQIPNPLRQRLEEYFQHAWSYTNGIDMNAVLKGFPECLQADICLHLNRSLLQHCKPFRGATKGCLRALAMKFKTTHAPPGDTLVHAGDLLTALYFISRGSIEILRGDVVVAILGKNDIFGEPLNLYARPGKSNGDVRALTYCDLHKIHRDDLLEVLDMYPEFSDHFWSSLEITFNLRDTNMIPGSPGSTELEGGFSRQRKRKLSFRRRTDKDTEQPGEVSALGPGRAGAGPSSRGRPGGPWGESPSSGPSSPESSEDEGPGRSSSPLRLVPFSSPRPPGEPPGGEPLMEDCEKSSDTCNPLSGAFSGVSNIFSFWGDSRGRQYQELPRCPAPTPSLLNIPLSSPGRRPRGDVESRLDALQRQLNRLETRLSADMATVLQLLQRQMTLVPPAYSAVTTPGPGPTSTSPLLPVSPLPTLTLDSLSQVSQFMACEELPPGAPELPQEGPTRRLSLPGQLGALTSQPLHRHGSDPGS
muscarinic M2 receptor, sequence (P08172 whole entry): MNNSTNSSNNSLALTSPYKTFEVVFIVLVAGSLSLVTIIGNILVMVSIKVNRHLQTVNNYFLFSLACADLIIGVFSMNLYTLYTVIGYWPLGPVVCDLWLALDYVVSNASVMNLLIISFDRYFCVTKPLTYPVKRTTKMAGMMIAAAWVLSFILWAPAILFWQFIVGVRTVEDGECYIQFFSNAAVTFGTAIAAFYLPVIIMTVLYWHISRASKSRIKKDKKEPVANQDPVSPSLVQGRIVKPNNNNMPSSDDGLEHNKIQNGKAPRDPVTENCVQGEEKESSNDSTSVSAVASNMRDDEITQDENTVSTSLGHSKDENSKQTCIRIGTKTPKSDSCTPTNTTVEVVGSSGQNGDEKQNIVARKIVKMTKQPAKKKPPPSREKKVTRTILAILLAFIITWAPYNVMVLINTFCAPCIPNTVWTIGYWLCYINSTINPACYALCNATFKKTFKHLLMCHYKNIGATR

IC50 (Menin protein) [µM] | IC50 (muscarinic M2 receptor) [µM] | SMILES | IC50 (hERG) [µM]
0.029 | – | CCN(C(=O)c1cc(F)ccc1-n1c(C)c(C(=O)C2CCN(C(=O)[C@@H]3CCC(C)(C)N3)CC2)c2ccncc21)C(C)C (single isomer, unassigned) [Example 50-2] | –
0.014 | – | Cc1c(C(=O)[C@@H]2CCN(C(=O)[C@H]3NC[C@@H]4C[C@@H]43)[C@@H](C)C2)c2ccncc2n1-c1ccc(F)cc1C(=O)N(CC(F)(F)F)C(C)C (single isomer, unassigned) [Example 53-3, 2-(3-((2R*,4S*)-1-((1S,2S,5R)-3-Azabicyclo[3.1.0]hexane-2-carbonyl)-2-methylpiperidine-4-carbonyl)-2-methyl-1H-pyrrolo[2,3-c]pyridin-1-yl)-5-fluoro-N-isopropyl-N-(2,2,2-trifluoroethyl)benzamide] | –
0.009 | – | Cc1c(C(=O)C2CCN(C(=O)[C@H]3NC[C@@H]4C[C@@H]43)CC2)c2ccncc2n1-c1ccc(F)cc1C(=O)N(C(C)C)C(C)C (single isomer, unassigned) [Example 55-2] | 82.3
0.022 | – | Cc1c(C(=O)C2CCN(C(=O)[C@H]3NC[C@@H]4C[C@@H]43)CC2)c2ccncc2n1-c1ccc(F)cc1C(=O)N(CC(F)(F)F)C(C)C (single isomer, unassigned) [Example 51-2] | > 200

The remaining lines, values behind:

SMILES | IC50 (Menin protein) [µM] | IC50 (muscarinic M2 receptor) [µM] | IC50 (hERG) [µM]
C[C@@H]1COC[C@@H](C)N1C(=O)c1cc(F)ccc1-n1cc(C(=O)C2CCN(C(=O)[C@H]3N[C@@H]4CC[C@H]3C4)CC2)c2ccncc21 [Example 34, (1-((1R,3S,4S)-2-Azabicyclo[2.2.1]heptane-3-carbonyl)piperidin-4-yl)(1-(2-((3R,5R)-3,5-dimethylmorpholine-4-carbonyl)-4-fluorophenyl)-1H-pyrrolo[2,3-c]pyridin-3-yl)methanone] | 0.029 | – | –
CC(C)N(C(=O)c1cc(F)ccc1-n1cc(C(=O)[C@H]2CCN(C(=O)[C@H]3N[C@@H]4CC[C@H]3C4)C2)c2ccncc21)C(C)C [Example 2, 2-(3-((S)-1-((1R,3S,4S)-2-Azabicyclo[2.2.1]heptane-3-carbonyl)pyrrolidine-3-carbonyl)-1H-pyrrolo[2,3-c]pyridin-1-yl)-5-fluoro-N,N-diisopropylbenzamide] | – | 5.2 | > 200
CC(C)N(C(=O)c1cc(F)ccc1-n1cc(C(=O)C2CCN(C(=O)[C@H]3N[C@@H]4CC[C@H]3C4)CC2)c2ccncc21)C(C)C [Example 16, 2-(3-(1-((1R,3S,4S)-2-Azabicyclo[2.2.1]heptane-3-carbonyl)piperidine-4-carbonyl)-1H-pyrrolo[2,3-c]pyridin-1-yl)-5-fluoro-N,N-diisopropylbenzamide] | – | 1.1 | 128
CC(C)N(C(=O)c1cc(F)ccc1-n1cc(C(=O)C2CN(C(=O)[C@H]3N[C@@H]4CC[C@H]3C4)C2)c2ccncc21)C(C)C [Example 5, 2-(3-(1-((1R,3S,4S)-2-Azabicyclo[2.2.1]heptane-3-carbonyl)azetidine-3-carbonyl)-1H-pyrrolo[2,3-c]pyridin-1-yl)-5-fluoro-N,N-diisopropylbenzamide] | – | > 100 | > 200
CC(C)c1ncncc1-c1cc(F)ccc1-n1cc(C(=O)C2CCN(C(=O)[C@H]3N[C@@H]4CC[C@H]3C4)CC2)c2ccncc21 [Example 37, (1-((1R,3S,4S)-2-Azabicyclo[2.2.1]heptane-3-carbonyl)piperidin-4-yl)(1-(4-fluoro-2-(4-isopropylpyrimidin-5-yl)phenyl)-1H-pyrrolo[2,3-c]pyridin-3-yl)methanone] | – | – | > 200
CCN(C(=O)c1cc(F)ccc1-n1cc(C(=O)C2CCN(C(=O)[C@H]3N[C@@H]4CC[C@H]3C4)CC2)c2ccncc21)C(C)C [Example 31, 2-(3-(1-((1R,3S,4S)-2-Azabicyclo[2.2.1]heptane-3-carbonyl)piperidine-4-carbonyl)-1H-pyrrolo[2,3-c]pyridin-1-yl)-N-ethyl-5-fluoro-N-isopropylbenzamide] | – | – | > 200
CC(C)n1nccc1-c1cc(F)ccc1-n1cc(C(=O)C2CCN(C(=O)[C@H]3N[C@@H]4CC[C@H]3C4)CC2)c2ccncc21 [Example 36, (1-((1R,3S,4S)-2-Azabicyclo[2.2.1]heptane-3-carbonyl)piperidin-4-yl)(1-(4-fluoro-2-(1-isopropyl-1H-pyrazol-5-yl)phenyl)-1H-pyrrolo[2,3-c]pyridin-3-yl)methanone] | – | – | 36.5
CCN(C(=O)c1cc(F)ccc1-n1c(C)c(C(=O)C2CCN(C(=O)[C@H]3NC[C@@H]4C[C@@H]43)CC2)c2ccncc21)C(C)C [Example 47, 2-(3-(1-((1S,2S,5R)-3-Azabicyclo[3.1.0]hexane-2-carbonyl)piperidine-4-carbonyl)-2-methyl-1H-pyrrolo[2,3-c]pyridin-1-yl)-N-ethyl-5-fluoro-N-isopropylbenzamide] | – | 62.8 | 194
CCN(C(=O)c1cc(F)ccc1-n1c(C)c(C(=O)C2CCN(C(=O)[C@H]3N[C@@H]4CC[C@H]3C4)CC2)c2ccncc21)C(C)C [Example 46, 2-(3-(1-((1R,3S,4S)-2-Azabicyclo[2.2.1]heptane-3-carbonyl)piperidine-4-carbonyl)-2-methyl-1H-pyrrolo[2,3-c]pyridin-1-yl)-N-ethyl-5-fluoro-N-isopropylbenzamide] | – | – | > 200
CC(C)c1ncccc1-c1cc(F)ccc1-n1cc(C(=O)C2CCN(C(=O)[C@H]3N[C@@H]4CC[C@H]3C4)CC2)c2ccncc21 [Example 38, (1-((1R,3S,4S)-2-Azabicyclo[2.2.1]heptane-3-carbonyl)piperidin-4-yl)(1-(4-fluoro-2-(2-isopropylpyridin-3-yl)phenyl)-1H-pyrrolo[2,3-c]pyridin-3-yl)methanone] | – | – | 26
CCN(C(=O)c1cc(F)ccc1-n1c(C)c(C(=O)C2CCN(C(=O)[C@H]3NC[C@@H]4C[C@@H]43)CC2)c2ccncc21)C(C)C (single isomer, unassigned) [Example 48-2] | 0.013 | – | > 200
CC(C)N(C(=O)c1cc(F)ccc1-n1cc(C(=O)C2CN(C(=O)[C@H]3N[C@H]4C[C@@H]3[C@@H](F)C4)C2)c2ccncc21)C(C)C [Example 7, 5-Fluoro-2-(3-(1-((1S,3S,4S,5S)-5-fluoro-2-azabicyclo[2.2.1]heptane-3-carbonyl)azetidine-3-carbonyl)-1H-pyrrolo[2,3-c]pyridin-1-yl)-N,N-diisopropylbenzamide] | – | – | 150
CC(C)N(C(=O)c1cc(F)ccc1-n1cc(C(=O)C2CCN(C(=O)[C@H]3NC[C@@H]4C[C@@H]43)CC2)c2ccncc21)C(C)C [Example 19, 2-(3-(1-((1S,2S,5R)-3-Azabicyclo[3.1.0]hexane-2-carbonyl)piperidine-4-carbonyl)-1H-pyrrolo[2,3-c]pyridin-1-yl)-5-fluoro-N,N-diisopropylbenzamide] | – | 21.3 | 128
CCN(C(=O)c1cc(F)ccc1-n1cc(C(=O)C2CCN(C(=O)[C@H]3NC[C@@H]4C[C@@H]43)CC2)c2ccncc21)C(C)C [Example 28, 2-(3-(1-((1S,2S,5R)-3-Azabicyclo[3.1.0]hexane-2-carbonyl)piperidine-4-carbonyl)-1H-pyrrolo[2,3-c]pyridin-1-yl)-N-ethyl-5-fluoro-N-isopropylbenzamide] | 0.017 | – | > 200
CCN(C(=O)c1cc(F)ccc1-n1c(C)c(C(=O)C2CCN(C(=O)[C@@H]3CCC4(CC4)N3)CC2)c2ccncc21)C(C)C (single isomer, unassigned) [Example 49-2] | 0.029 | – | –
